Here are results for nine molecules from patent publication US6911470B1, “Polyoxometalate compounds as antiviral agents” (priority 1988, dated 2005).

The test system of assay [1] is human PBM cells. The experiment in a line: Cytotoxicity assay on uninfected PHA stimulated human PBMC (trypan blue). The assay is classed as cell-based. Summed up:
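Uninfected PHA-stimulated human PBMC at 2×10^5 cells/ml were cultured with or without drug for 6 days. Viability was counted by trypan blue exclusion on a hemacytometer. IC50 was derived by the median-effect method.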

The test system of assay [2] is HIV-1 (strain LAV-1). Put plainly: microbe, parasite or virus in culture. In kind it is cell-based. The method, then:
Cells. Human peripheral blood mononuclear cells (PBMC) from healthy HIV-1 seronegative and hepatitis B virus seronegative donors were isolated by Ficoll-Hypaque discontinuous gradient centrifugation at 1,000×g for 30 minutes, washed twice in phosphate-buffered saline (pH 7.2; PBS), and pelleted at 300×g for 10 minutes. Before infection, the cells were stimulated by phytohemagglutinin (PHA) at a concentration of 6 μg/ml for three days in RPMI 1640 medium supplemented with 15% heat-inactivated fetal calf serum, 1.5 mM L-glutamine, penicillin (100 U/ml), streptomycin (100 μg/ml), and 4mM sodium bicarbonate buffer.
Viruses. HIV-1 (strain LAV-1) was obtained from Dr. P. Feorino (Centers for Disease Control, Atlanta, Ga.). The virus was propagated in human PBMC using RPMI 1640 medium, as described previously (McDougal et al, J. Immun. Meth. 76, 171-183, 1985) without PHA and supplemented with 7% v/v interleukin-2 (Advanced Biotechnologies, Silver Spring, Md.), 7 μg/ml DEAE-dextran (Pharmacia, Uppsala, Sweden), and 370 U/ml anti-human leucocyte (alpha) interferon (ICN, Lisle, Ill.). Virus obtained from cell-free culture supernatant was titrated and stored in aliquots at −80° C. until use.
Inhibition of virus replication in human PBMC. Uninfected PHA-stimulated human PBMC were uniformly distributed among 25 cm^2 flasks to give a 5 ml suspension containing about 2×10^6 cells/ml. Suitable dilutions of virus were added to infect the cultures. The mean reverse transcriptase (RT) activity of the inocula was 50,000 decompositions per min/ml corresponding to about 100 TCID50, as determined by Groopman et al. (Groopman et al, AIDS Res. Human Retro. 3, 71-85, 1987. The drugs at twice their final concentrations in 5 ml of RPMI 1640 medium, supplemented as described above, were added to the cultures. Uninfected and untreated PBMC at equivalent cell densities were grown in parallel as controls. The cultures were maintained in a humidified 5% CO2-95% air incubator at 37° C. for six days after infection, at which point all cultures were sampled for supernatant reverse transcriptase (RT) activity.
RT activity assay. Six ml supernatant from each culture was clarified from cells at 300×g for 10 minutes. Virus particles were pelleted from 5 ml samples at 40,000 rpm for 30 minutes using a Beckman 70.1 Ti rotor and suspended in 200 μl of virus disrupting buffer (50 mM Tris-Cl, pH 7.8, 800 mM NaCl, 20% glycerol, 0.5 mM phenylmethyl sulfonyl fluoride, and 0.5% Triton X-100).
The RT assay was performed in 96-well microtiter plates, as described by Spira et al. (Spira et al, J. Clin. Microbiol. 22, 97-99, 1987). The reaction mixture, which contained 50 mM Tris-Cl pH 7.8, 9 mM MgCl2, 5 mM dithiothreitol (DTT), 4.7 μg/ml (rA)n. (dT)12-18, 140 μM dATP, and 0.22 μM [^3H]TTP, specific activity 78.0 Ci/mmol, equivalent to 17,300 cpm/pmol; NEN Research Products, Boston, Mass., was added to each well. The sample (20 μl) was added to the reaction mixture which was then incubated at 37° C. for 2 hours. The reaction was terminated by the addition of 100 μl 10% trichloroacetic acid (TCA) containing 0.45 mM sodium pyrophosphate. The acid-insoluble nucleic acids which precipitated were collected on glass filters using a Skatron semi-automatic harvester. The filters were washed with 5% TCA and 70% ethanol, dried, and placed in scintillation vials. Four ml of scintillation fluid (Econofluor, NEN Research Products, Boston, Mass.) were added and the amount of radioactivity in each sample was determined using a Packard Tri-Carb liquid scintillation analyzer (model 2,000CA). The results were expressed in dpm/ml of original clarified supernatant.
Median-effect method. Dose-effect relationships were analyzed by the median-effect equation (Chou et al, Adv. Enz. Regul. 22, 27-55, 1984).

Where [3] appears, read: Table 2, >100 μM = Nontoxic, read-out: IC50 Toxicity PBM Cells.
[4] abbreviates: Table 2, several values per cell, some in brackets, read-out: EC-50 HIV-1 (LAV-1).
The mark [5] stands for this setting: Table 1, read-out: IC50 Toxicity in Human PBM Cells.
Setting [6] is: Table 1, read-out: EC50 Anti-HIV-1 Activity in Human PBM Cells.

Where “and” joins values, the source holds several entries; their conditions need not be identical. Equal entries are not always repeated. Where two headings read alike, the source gives them in different places.

`Cc1cn([C@H]2C[C@H](N=[N+]=[N-])[C@@H](CO)O2)c(=O)[nH]c1=O` [Formula 22, 3′-azido-3′-deoxythymidine, reference compound]: the IC50 was more than 100 µM in assay [1] (Homo sapiens, PBMC, Table 1, read-out: IC50 Toxicity in Human PBM Cells) and more than 100 µM in assay [1] (Homo sapiens, PBMC, Table 2, >100 μM = Nontoxic, read-out: IC50 Toxicity PBM Cells). Moreover, the EC50 in assay [2] (Human immunodeficiency virus 1, PBMC, Table 1, read-out: EC50 Anti-HIV-1 Activity in Human PBM Cells) worked out at 4 nM; in assay [2] (Human immunodeficiency virus 1, PBMC, Table 2, several values per cell, some in brackets, read-out: EC-50 HIV-1 (LAV-1)), 3.08 nM.

In the case of “(ArgH^+)m(H^+)4-mST, where m=1-4 [(ARGH^+)nH^+(4−n)ST]”, in assay [1] (setting [3]), the half-maximal inhibitory concentration (IC50) is more than 100 µM. For the same molecule, the EC50 in assay [2] (setting [4]) was 1030 nM and 770 nM.

With (Me4N)4W10O32 [Formula 19], in assay [1] (setting [5]), the IC50 was more than 100 µM. The EC50 was 3100 nM in assay [2] (setting [6]); 3050 nM and 3300 nM in assay [2] (setting [4]).

(NH4)4W10O32 [Formula 18]: the IC50 is 115 µM in assay [1] (setting [5]) and more than 100 µM in assay [1] (setting [3]). Further, in assay [2] (setting [6]), the EC50 worked out at 1800 nM.

Turning to (NH4)6P2W18O62 [Formula 14], the “Toxicity PBM Cells, percent at given concentration” value (from here on “Toxicity PBM Cells, percent”) in assay [1] (100 μM) is listed as 76%,. In addition, the IC50 in assay [1] (setting [5]) amounted to 1.8 µM. The EC50 in assay [2] (setting [6]) and in assay [2] (setting [4]) was 910 nM each time.

On to H3PW12O40 [Formula 2], for which, in assay [1] (setting [5]), the half-maximal inhibitory concentration (IC50) was more than 100 µM. The EC50 in assay [2] (setting [6]) and in assay [2] (setting [4]) was 14000 nM throughout.

For H4SiW12O40 [Formula 3], in assay [1] (setting [5]), the IC50 was more than 200 µM. For the same molecule, the EC50 is 120 nM in assay [2] (setting [6]); 120 nM and 210 nM in assay [2] (Table 2, several values per cell, some in brackets, listed as α and β H4ST, read-out: EC-50 HIV-1 (LAV-1)). In addition, the “therapeutic index in human PBM cells” value in assay [2] (from Table 1 EC50 and IC50) was “highest”.

As for H5BW12O40 [Formula 4], the “Toxicity PBM Cells, percent” value in assay [1] (200 μM) is recorded as 76%,. For the same molecule, in assay [1] (setting [5]), the IC50 was 126 µM. Besides, the EC50 in assay [2] (setting [6]) turned out to be 460 nM.

As for H6P2W18O62 [Formula 13], in assay [1] (100 μM), the “Toxicity PBM Cells, percent” value was 90%,. Also, the IC50 in assay [1] (setting [5]) amounted to 6.2 µM. The EC50 in assay [2] (setting [6]) and in assay [2] (setting [4]) was 520 nM throughout.

By IC50 is commonly meant the concentration that inhibits the measured activity by half.
